Patent US10787452B2 (Vertex Pharmaceuticals Incorporated, priority 2012, dated 2020)

System: HCT116 colorectal cancer cells
Test: Cisplatin sensitization assay (96 h cell viability MTS);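 note: compound concentration needed to lower the Cisplatin-alone IC50 by a set fold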
Assay type: cell-based
Settings: 96 h MTS, compound plus Cisplatin
Procedure, shortened: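 Test compound and cisplatin were added together as a full matrix of 2-fold serial dilutions, each from a top final concentration of 10 μM. Cells were incubated 96 h at 37° C in 5% CO2, then viability was read by MTS after a further 1 h incubation.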

Row | Structure (SMILES) | Cisplatin Sensitization Assay
1 | CN1CCN(C(=O)C2(C#N)CCN(c3c(F)cncc3NC(=O)c3c(N)nn4cc(F)cnc34)CC2)CC1 [I-G-25, 2-amino-N-(4-(4-cyano-4-(4-methylpiperazine-1-carbonyl)piperidin-1-yl)-5-fluoropyridin-3-yl)-6-fluoropyrazolo[1,5-a]pyrimidine-3-carboxamide] | +++ (Compounds with a Cisplatin sensitization value of <0.02 μM are marked with “+++.”)
2 | Cn1ccc2cncc(NC(=O)c3c(N)nn4cc(F)cnc34)c21 [I-N-259, 2-amino-6-fluoro-N-(1-methyl-1H-pyrrolo[3,2-c]pyridin-7-yl)pyrazolo[1,5-a]pyrimidine-3-carboxamide] | + (Compounds with a Cisplatin sensitization value >0.2 μM but <5 μM are marked with “+.”)
3 | Nc1nn2cc(F)cnc2c1C(=O)Nc1cncc(F)c1N1CCC(CN2CCCC2=O)CC1 [I-N-213, 2-amino-6-fluoro-N-(5-fluoro-4-(4-((2-oxopyrrolidin-1-yl)methyl)piperidin-1-yl)pyridin-3-yl)pyrazolo[1,5-a]pyrimidine-3-carboxamide] | +++ (Compounds with a Cisplatin sensitization value of <0.02 μM are marked with “+++.”)
4 | Nc1nn2cc(Cl)cnc2c1C(=O)Nc1cnccc1N1CCC(N2CCOCC2)CC1 [I-N-104, 2-amino-6-chloro-N-(4-(4-morpholinopiperidin-1-yl)pyridin-3-yl)pyrazolo[1,5-a]pyrimidine-3-carboxamide] | +++ (Compounds with a Cisplatin sensitization value of <0.02 μM are marked with “+++.”)
5 | CS(=O)(=O)C1CN(C(=O)C2CCN(c3c(F)cncc3NC(=O)c3c(N)nn4cc(F)cnc34)CC2)C1 [I-G-86, 2-amino-6-fluoro-N-(5-fluoro-4-(4-(3-(methylsulfonyl)azetidine-1-carbonyl)piperidin-1-yl)pyridin-3-yl)pyrazolo[1,5-a]pyrimidine-3-carboxamide] | +++ (Compounds with a Cisplatin sensitization value of <0.02 μM are marked with “+++.”)
6 | COc1ccc(-c2ccncc2NC(=O)c2c(N)nn3cc(F)cnc23)cn1 [I-C-27, 2-amino-6-fluoro-N-(6-methoxy-[3,4′-bipyridin]-3′-yl)pyrazolo[1,5-a]pyrimidine-3-carboxamide] | ++ (Compounds with a Cisplatin sensitization value >0.02 μM but <0.2 μM are marked with “++.”)
7 | CN1CCN(C(=O)C2CCN(c3ccncc3NC(=O)c3c(N)nn4cc(F)cnc34)CC2)CC1 [I-G-1, 2-amino-6-fluoro-N-(4-(4-(4-methylpiperazine-1-carbonyl)piperidin-1-yl)pyridin-3-yl)pyrazolo[1,5-a]pyrimidine-3-carboxamide] | +++ (Compounds with a Cisplatin sensitization value of <0.02 μM are marked with “+++.”)
8 | Nc1nn2cc(F)cnc2c1C(=O)Nc1cncc(F)c1N1CCN(C(=O)C2CNC2)CC1 [I-N-168, 2-amino-N-(4-(4-(azetidine-3-carbonyl)piperazin-1-yl)-5-fluoropyridin-3-yl)-6-fluoropyrazolo[1,5-a]pyrimidine-3-carboxamide] | + (Compounds with a Cisplatin sensitization value >0.2 μM but <5 μM are marked with “+.”)
9 | CN1CCN(C(=O)C2CCN(c3c(F)cncc3NC(=O)c3c(N)nn4cc(F)cnc34)CC2)CC12CC2 [I-G-38, 2-amino-6-fluoro-N-(5-fluoro-4-(4-(4-methyl-4,7-diazaspiro[2.5]octane-7-carbonyl)piperidin-1-yl)pyridin-3-yl)pyrazolo[1,5-a]pyrimidine-3-carboxamide] | +++ (Compounds with a Cisplatin sensitization value of <0.02 μM are marked with “+++.”)
10 | COC1(C)CN(C(=O)C2CCN(c3c(F)cncc3NC(=O)c3c(N)nn4cc(F)cnc34)CC2)C1 [I-G-75, 2-amino-6-fluoro-N-(5-fluoro-4-(4-(3-methoxy-3-methylazetidine-1-carbonyl)piperidin-1-yl)pyridin-3-yl)pyrazolo[1,5-a]pyrimidine-3-carboxamide] | +++ (Compounds with a Cisplatin sensitization value of <0.02 μM are marked with “+++.”)
11 | CN1CCN(c2ccc(-c3ccncc3NC(=O)c3c(N)nn4cc(F)cnc34)cn2)CC1 [I-C-21, 2-amino-6-fluoro-N-(6-(4-methylpiperazin-1-yl)-[3,4′-bipyridin]-3′-yl)pyrazolo[1,5-a]pyrimidine-3-carboxamide] | +++ (Compounds with a Cisplatin sensitization value of <0.02 μM are marked with “+++.”)
12 | Nc1nn2cc(F)cnc2c1C(=O)Nc1cnccc1N1CCN(C2COC2)CC1 [I-N-1, 2-amino-6-fluoro-N-(4-(4-(oxetan-3-yl)piperazin-1-yl)pyridin-3-yl)pyrazolo[1,5-a]pyrimidine-3-carboxamide] | ++ (Compounds with a Cisplatin sensitization value >0.02 μM but <0.2 μM are marked with “++.”)
13 | CN1CC2CN(C(=O)C3CCN(c4c(F)cncc4NC(=O)c4c(N)nn5cc(F)cnc45)CC3)CC2C1 (centres unmarked) [I-G-18, 2-amino-6-fluoro-N-(5-fluoro-4-(4-(5-methyloctahydropyrrolo[3,4-c]pyrrole-2-carbonyl)piperidin-1-yl)pyridin-3-yl)pyrazolo[1,5-a]pyrimidine-3-carboxamide] | +++ (Compounds with a Cisplatin sensitization value of <0.02 μM are marked with “+++.”)
14 | N#CCc1cnc2c(C(=O)Nc3cnccc3N3CCC(N)CC3)c(N)nn2c1 [I-N-2, 2-amino-N-(4-(4-aminopiperidin-1-yl)pyridin-3-yl)-6-(cyanomethyl)pyrazolo[1,5-a]pyrimidine-3-carboxamide] | +++ (Compounds with a Cisplatin sensitization value of <0.02 μM are marked with “+++.”)
15 | CNc1cc(OC)c(NC(=O)c2c(N)nn3cc(F)cnc23)cn1 [I-O-90, 2-amino-6-fluoro-N-(4-methoxy-6-(methylamino)pyridin-3-yl)pyrazolo[1,5-a]pyrimidine-3-carboxamide] | + (Compounds with a Cisplatin sensitization value >0.2 μM but <5 μM are marked with “+.”)
16 | CN1CCC(Oc2c(Cl)cncc2NC(=O)c2c(N)nn3cc(Cl)cnc23)CC1 [I-O-46, 2-amino-6-chloro-N-(5-chloro-4-((1-methylpiperidin-4-yl)oxy)pyridin-3-yl)pyrazolo[1,5-a]pyrimidine-3-carboxamide] | + (Compounds with a Cisplatin sensitization value >0.2 μM but <5 μM are marked with “+.”)
17 | CN1CC(OC2CCN(c3ccncc3NC(=O)c3c(N)nn4cc(F)cnc34)CC2)C1 [I-N-164, 2-amino-6-fluoro-N-(4-(4-((1-methylazetidin-3-yl)oxy)piperidin-1-yl)pyridin-3-yl)pyrazolo[1,5-a]pyrimidine-3-carboxamide] | +++ (Compounds with a Cisplatin sensitization value of <0.02 μM are marked with “+++.”)
18 | Nc1nn2cc(F)cnc2c1C(=O)Nc1cncc(F)c1N1CCC(C(=O)N2CCN3CCCC3C2)CC1 (centres unmarked) [I-G-10, 2-amino-6-fluoro-N-(5-fluoro-4-(4-(octahydropyrrolo[1,2-a]pyrazine-2-carbonyl)piperidin-1-yl)pyridin-3-yl)pyrazolo[1,5-a]pyrimidine-3-carboxamide] | +++ (Compounds with a Cisplatin sensitization value of <0.02 μM are marked with “+++.”)
19 | N#CCc1cnc2c(C(=O)Nc3cnccc3OC3CCOCC3)c(N)nn2c1 [I-O-30, 2-amino-6-(cyanomethyl)-N-(4-((tetrahydro-2H-pyran-4-yl)oxy)pyridin-3-yl)pyrazolo[1,5-a]pyrimidine-3-carboxamide] | +++ (Compounds with a Cisplatin sensitization value of <0.02 μM are marked with “+++.”)
20 | Nc1nn2cc(F)cnc2c1C(=O)Nc1cncc(F)c1N1CCC(C(=O)N2CC(F)C2)CC1 [I-G-74, 2-amino-6-fluoro-N-(5-fluoro-4-(4-(3-fluoroazetidine-1-carbonyl)piperidin-1-yl)pyridin-3-yl)pyrazolo[1,5-a]pyrimidine-3-carboxamide] | +++ (Compounds with a Cisplatin sensitization value of <0.02 μM are marked with “+++.”)
21 | COc1cncc(NC(=O)c2c(N)nn3cc(F)cnc23)c1-c1cccnc1 [I-C-82, 2-amino-6-fluoro-N-(5′-methoxy-[3,4′-bipyridin]-3′-yl)pyrazolo[1,5-a]pyrimidine-3-carboxamide] | +++ (Compounds with a Cisplatin sensitization value of <0.02 μM are marked with “+++.”)
22 | CN(C)CCN1CCN(c2ccncc2NC(=O)c2c(N)nn3cc(Cl)cnc23)CC1 [I-N-49, 2-amino-6-chloro-N-(4-(4-(2-(dimethylamino)ethyl)piperazin-1-yl)pyridin-3-yl)pyrazolo[1,5-a]pyrimidine-3-carboxamide] | +++ (Compounds with a Cisplatin sensitization value of <0.02 μM are marked with “+++.”)
23 | Nc1nn2cc(F)cnc2c1C(=O)Nc1cnccc1OC1CCC(C(=O)O)CC1 (centres unmarked) [I-O-8, 4-((3-(2-amino-6-fluoropyrazolo[1,5-a]pyrimidine-3-carboxamido)pyridin-4-yl)oxy)cyclohexanecarboxylic acid] | + (Compounds with a Cisplatin sensitization value >0.2 μM but <5 μM are marked with “+.”)
24 | Nc1nn2cc(Cl)cnc2c1C(=O)Nc1cnccc1OC1CNC1 [I-O-73, 2-amino-N-(4-(azetidin-3-yloxy)pyridin-3-yl)-6-chloropyrazolo[1,5-a]pyrimidine-3-carboxamide] | + (Compounds with a Cisplatin sensitization value >0.2 μM but <5 μM are marked with “+.”)
25 | CN1CCN(c2ccncc2NC(=O)c2c(N)nn3cc(Cl)cnc23)CC1(C)C [I-N-53, 2-amino-6-chloro-N-(4-(3,3,4-trimethylpiperazin-1-yl)pyridin-3-yl)pyrazolo[1,5-a]pyrimidine-3-carboxamide] | ++ (Compounds with a Cisplatin sensitization value >0.02 μM but <0.2 μM are marked with “++.”)
26 | Cc1nc(O[C@@H]2CCN(C)C2)ccc1-c1ccncc1NC(=O)c1c(N)nn2cc(F)cnc12 [I-C-41, (R)-2-amino-6-fluoro-N-(2-methyl-6-((1-methylpyrrolidin-3-yl)oxy)-[3,4′-bipyridin]-3′-yl)pyrazolo[1,5-a]pyrimidine-3-carboxamide] | +++ (Compounds with a Cisplatin sensitization value of <0.02 μM are marked with “+++.”)
